In patent US20250340593A1, “METHOD AND COMPOSITION FOR TREATING NEURODEGENERATIVE DISORDER” (priority 2022, published 2025):
Residues, ends and D or L forms follow the SMILES beside them.

Tests used:
Aβ preparation (30 μM) = target: T1, Aβ preparation (30 μM) (Homo sapiens, UniProt P05067); assay: Transmission electron microscopy of Aβ aggregates; details: for morphology of Aβ aggregates by TEM: Aβ 30 μM with equimolar peptide, 24 h
T1 construct: purchased Bachem; host or cells: chemical synthesis
T1 sequence (P05067 672-713 limits assumed): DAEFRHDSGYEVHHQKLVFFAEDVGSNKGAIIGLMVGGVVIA
Experimental: Prior to imaging, 10 μL of an Aβ preparation (30 μM) aggregated for 24 h at 37° C. in the presence or absence of equimolar concentration of the CP or BP were deposited onto Formvar-C coated mesh nickel grids. After a 10 min incubation step at RT, grids were rinsed with sterile dH20. Samples were subsequently stained using 5% uranyl acetate for 1 minute in the dark to increase contrast and were allowed to air dry for 2 minutes. Finally, they were visualized with a JEM 1400 Transmission Electron Microscope (Jcol Tokyo, Japan), operating at 120 kV, initially imaged at low magnification (20,000X), and thereafter at 120,000X using a Gatan Orius 1000 digital micrograph software.

AB40 monomers (Aβm) = target: T2, AB40 monomers (Aβm) (Homo sapiens, UniProt P05067); assay: Indirect ELISA, binding of coated peptide to biotinylated Aβ40 monomers
T2 construct: synthetic biotinylated Aβ42 oligomers (Aβo) or AB40 monomers (Aβm); purchased Bachem; host or cells: chemical synthesis
T2 sequence (P05067 672-711 limits assumed): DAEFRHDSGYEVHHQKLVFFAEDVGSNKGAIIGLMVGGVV
Experimental: (§1) The binding of the CP or BP to synthetic biotinylated Aβ42 oligomers (Aβo) or AB40 monomers (Aβm) was determined by indirect ELISA in which the CP or BP were used as the capture antigens and the biotin tag of the biotinylated Aβ peptides for the detection. 96-well clear polystyrene microplate (BioTechne DY990) were coated overnight at 4° C. with 5 μM of the CP or BP in PBS, pH 7.4. After immobilization, the plate was washed three times with PBS 0.05% Tween 20 and various concentrations of biotinylated Aβ peptides were added in triplicate from 0.1 μg.mL-1 to 10 μg.mL-1 (21 nM to 2.1 μM for Aβo (42), 22 nM to 2.2 μM for Aβm (40) and incubated for 2 h at RT. After additional washes with PBS 0.05% Tween 20, HRP-conjugated streptavidin (1/40) was added for 20 min at RT, followed by a washing step and an incubation in substrate solution containing 3,3′,5,5′-Tetramethylbenzidine (TMB) and H2O2. The reaction was stopped by H2SO4. Absorbance was successively measured at 450 and 540 nm with a TECAN microplate reader and optical density values at 540 nm were subtracted from the ones at 450 nm to correct for optical imperfections of the plate. Unspecific Aβ binding to the microplate was determined using non-coated wells.

Aβ42 oligomers (Aβo) = target: T3, Aβ42 oligomers (Aβo) (Homo sapiens, UniProt P05067); assay: Indirect ELISA, binding of coated peptide to biotinylated Aβ42 oligomers; details: peptide coated at 5 μM
T3 construct: purchased Bachem; host or cells: chemical synthesis
T3 sequence (P05067 672-713 limits assumed): as the sequence (P05067 672-713 limits assumed) above
Experimental: as §1

[1] = test system: DIV 21 primary hippocampal neurons; assay: Aβ synaptic targeting in primary hippocampal neurons; type: cell-based, mouse; details: 500 nM biotinylated HMW Aβo enriched preparation aggregated 2 h with equimolar peptide; neurons treated 30 min
Experimental: Primary hippocampal neuron cultures were prepared from E17-18 C57Bl/6JRj mice. Briefly, hippocampi were removed, cut into pieces in Hank's buffered salt solution (HBSS), digested in HBSS supplemented with trypsin (0.25% v/v) and rinsed in HBSS and BSA 0.2%. Next, hippocampi were triturated in Neurobasal medium without phenol red supplemented with L-glutamine (2 mM), 2% B27, 1% penicillin-streptomycin (10000 U/mL). Hippocampal neurons were then plated onto poly-L-lysine coated coverslips (0.5 mg/ml) at a low density (15×10^3 cells/cm2) for synaptic targeting experiments. Neurons were subsequently cultured for 21 DIV in supplemented Neurobasal medium at 37° C. under 5% CO2, one-half of the media being changed once a week. […]
Treated hippocampal neuron cultures were fixed with 4% paraformaldehyde in 0.1 M phosphate buffer at RT prior to immunostaining. After a blocking step in non-permeabilizing condition (PBS, 1% BSA) surface-bound biotinylated Aβ was detected with fluorescently tagged streptavidin (Alexa Fluor 647, Invitrogen) incubated for 3 h at RT. […]
Immunostainings images were obtained using a confocal Zeiss LSM 880 AiryScan microscope equipped with two diode lasers (405, 561 nm), a laser gaz argon (488 nm) and a laser gaz He/Ne ([…]), a 63x objective and an additional zoom factor (3x). […] Biotinylated Aβ clusters were quantified in each ROI in collapsed Z-stacks.

monomeric Aβ42 = target: T4, monomeric Aβ42 (Homo sapiens, UniProt P05067); assay: Thioflavin-T assay of Aβ42 aggregation kinetics; type: biochemical; details: for inhibition of fibril formation (normalized ThT fluorescence): 15 μM monomeric Aβ, equimolar peptide, 24 hours; for ThT fluorescence of peptide alone: highest concentration of peptide alone, no Aβ
T4 construct: purchased Bachem; host or cells: chemical synthesis
T4 sequence (P05067 672-713 limits assumed): as above
Experimental: Thioflavin-T (ThT) assays were performed in black polystyrene 384-well plates with transparent bottom using a Tecan microplate reader with a set of excitation/emission wavelengths of 450/490 nm. Monomeric Aβ42 was prepared as described above and blocking or control peptides (BP ou CP) were used at indicted concentrations, ranging from 0.5 to 15 μM. The final concentration of ThT and monomeric AB42 was used at 15 μM in PBS buffer (pH 7.4), with a total reaction volume per well of 110 μL. The plate was sealed with a transparent plastic film and incubated at 37° C. prior to fluorescence measurement. ThT fluorescence intensity was monitored every 5 min over 24 h at 37° C. without agitation. Three replicates per condition were measured.

Molecule | morphology of Aβ aggregates by TEM (Aβ preparation (30 μM)) | self-assembly structures of peptide alone by TEM (Aβ preparation (30 μM)) | binding to Aβm (AB40 monomers (Aβm); ELISA, peptide coated at 5 μM) | binding to Aβo (Aβ42 oligomers (Aβo); ELISA) | synapses colocalized with Aβ [1] | inhibition of fibril formation (normalized ThT fluorescence) (monomeric Aβ42) | ThT fluorescence of peptide alone (monomeric Aβ42) | Kd (AB40 monomers (Aβm)) [µM] | Kd (Aβ42 oligomers (Aβo); ELISA titration binding curves) [µM] | steepness of the exponential phase corresponding to Aβ42 nucleation (monomeric Aβ42; peptide 0.5 to 15 μM, 15 μM Aβ42)
NDYKDDDDKGAAA [CP, reference compound] | characteristic twisted morphology | does not induce any 3-dimensional self-assembly structures | fails to bind | fails to bind | ~40% | no significant effect | does not induce any increase in ThT fluorescence | – | – | –
CC(C)[C@H](NC(=O)[C@H](Cc1ccc(O)cc1)NC(=O)[C@@H](NC(=O)[C@H](CO)NC(=O)[C@H](Cc1c[nH]c2ccccc12)NC(=O)[C@H](CO)NC(=O)[C@H](CCCCN)NC(=O)[C@H](Cc1ccc(O)cc1)NC(=O)[C@H](CCCNC(=N)N)NC(=O)[C@H](CO)NC(=O)[C@H](CCCCN)NC(=O)[C@H](CCCCN)NC(=O)[C@H](CCCNC(=N)N)NC(=O)[C@@H](N)CCCCN)C(C)C)C(=O)NCC(=O)O [BP, KRKKSRYKSWSVYVG] (H-KRKKSRYKSWSVYVG-OH; N-terminus and C-terminus assumed) | mainly non-fibrillar and amorphous in shape | does not induce any 3-dimensional self-assembly structures | – | – | only a small proportion | 95% | does not induce any increase in ThT fluorescence | 19 | 0.012 | decreases with increasing concentrations
